Reference: PubChem BioAssay (NCI)
Several values for one entry are separate records, joined by “and”; a condition that tells them apart may be missing. Equal values may be shown once.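 Cultured in 96-well plates, cells were exposed to test compound for 48 hours across five concentrations. Here, GI50 denotes the concentration required for 50% inhibition of growth. TGI: total growth inhibition.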

Legend:
Test in all cases: NCI tumour cell line growth inhibition, 48 h
[1] = test system: UO-31 renal
[2] = test system: U251 CNS
[3] = test system: RPMI-8226 leukemia
[4] = test system: SK-OV-3 ovarian
[5] = test system: MCF7 breast
[6] = test system: UACC-257 melanoma
[7] = test system: OVCAR-8 ovarian
[8] = test system: HT29 colon
[9] = test system: SN12C renal
[10] = test system: OVCAR-3 ovarian

Row | Compound | GI50 [1] [µM] | TGI [1] | GI50 [2] [µM] | TGI [2] [µM] | GI50 [3] [µM] | TGI [3] [µM] | GI50 [4] [µM] | TGI [4] [µM] | GI50 [5] [µM] | TGI [5] | GI50 [6] [µM] | TGI [6] | GI50 [7] [µM] | TGI [7] | GI50 [8] [µM] | TGI [8] | GI50 [9] [µM] | TGI [9] | GI50 [10] [µM] | TGI [10]
1 | COC(=O)c1ccc(NC(=O)Oc2ccc(N(CCCl)CCCl)cc2)cc1 | 4.86 | 29.7 µM | 3.09 | 41.4 | 6.5 | > 100 | 4.41 | 29.5 | 1.6 | > 100 µM | 7.73 | 99.7 µM | 4.34 | 84.6 µM | 16.5 | > 100 µM | 2.97 | 94.1 µM | 7.77 | 22.3 µM
2 | CCCCCCCCCCCCCC[C@@H](O)[C@H]1CC[C@H]([C@H]2CC[C@H]([C@H](O)CCCCCC[C@@H](O)CC3=C[C@H](C)OC3=O)O2)O1 | 1.21 | 2.59 µM and > 25 µM | 2.06 | > 25 | 2.16 | > 25 | – | > 25 | 1.14 | 3.47 µM and > 25 µM | 1.62 | 6.01 µM and > 25 µM | > 25 | 3.94 µM and > 25 µM | > 25 | 3.3 µM and > 25 µM | > 25 | 6.47 µM and > 25 µM | 1.53 | 3.21 µM and > 25 µM
3 | O=c1[nH]cnc2c1nnn2CCCCCCCCCCCCn1nnc2c(=O)[nH]cnc21 | – | > 100 µM | – | 52.8 | – | > 100 | – | 38.5 | – | > 100 µM | – | > 100 µM | – | > 86.8 µM | – | > 100 µM | – | > 100 µM | – | > 100 µM
4 | O=S(=O)(c1cnccc1N1CCN(CCO)CC1)N1CCCC1 | – | > 100 µM | – | > 100 | – | > 100 | – | > 100 | – | > 100 µM | – | > 100 µM | – | > 100 µM | – | > 100 µM | – | > 100 µM | – | > 100 µM
5 | COC(=O)C=Cc1ccc2nncnc2c1 (mixture of isomers) | – | > 100 µM | – | > 100 | – | > 100 | – | > 100 | – | > 100 µM | – | 36.3 µM | – | > 100 µM | – | > 100 µM | – | > 100 µM | – | > 100 µM
6 | COc1ccc(N(C)c2nc(N)nc3sc4c(c23)CCCC4)cc1 | < 0.01 | 14.2 µM | < 0.0114 | 15 | < 0.01 | 15.6 | < 0.013 | 14.2 | < 0.01 | 14.8 µM | 8.12 | 26.3 µM | < 0.0171 | 14.9 µM | < 0.01 | 12.1 µM | < 0.01 | 14 µM | 0.025 | 14.2 µM
7 | CC(=O)[O][Hg][c]1c(C)c(C)cc(C)c1C | 1.68 | 3.25 µM | 0.765 | 2.26 | 1.6 | 6.11 | 3.63 | 6.96 | 0.873 | 2.86 µM | 1.36 | 2.73 µM | 1.77 | 3.23 µM | 1.6 | 6.31 µM | 1.94 | 4.48 µM | 1.36 | 2.71 µM
8 | Cc1cc(Cl)nc(N(CCCNc2ccnc3cc(Cl)ccc23)Cc2ccco2)n1 | 1.08 | 5.93 µM | 2.07 | 6.15 | 1.04 | 3.19 | 2.45 | 8.22 | 1.81 | 6.1 µM | 2.21 | 5.76 µM | 2.05 | 6.31 µM | 1.38 | 6.46 µM | 2.45 | 9.87 µM | 2.48 | 10.3 µM
9 | c1cc2c(cn1)Nc1ccncc1S2 | 23.5 | > 100 µM | 44.6 | > 100 | 36.3 | > 100 | 15.2 | 80.6 | 32.9 | > 100 µM | 71.5 | > 100 µM | 35.7 | > 100 µM | 58 | > 100 µM | 69.4 | > 100 µM | 83 | > 100 µM
10 | COc1nnc2ccc(N3CCC(c4ccc(OCCN5CCN(C)C(=O)[C@H]5C)cc4)CC3)nn12 | 0.0396 | > 100 µM | 0.961 | > 100 | 0.0229 | 54 | 0.0774 | > 42.1 | 0.0234 | > 100 µM | 0.187 | > 100 µM | 0.544 | > 100 µM | 0.0392 | > 100 µM | 0.606 | > 100 µM | 0.0975 | 53.1 µM
11 | O=[N+]([O-])c1cccc(C2CC(c3ccccc3)=Nc3ccccc3S2)c1 (centres undefined) | 9.61 | 21.9 µM | 8.48 | 21.2 | 3.41 | 17.3 | 34.9 | > 100 | 2.06 | 13.3 µM | 21.6 | 61 µM | 15.5 | 39.6 µM | 8.25 | 24.3 µM | 13.4 | 26.8 µM | 13.3 | 26.1 µM
12 | O=C(CN1C(=O)S/C(=C\C(Cl)=C\c2ccccc2)C1=O)NC1C=CS(=O)(=O)C1 (centres undefined) | 1.37 | 2.79 µM | 1.88 | 5.9 | 0.477 | 4.33 | 3.3 | 32.6 | 0.467 | > 100 µM | 2.18 | 8.82 µM | 0.939 | > 100 µM | 1.92 | 6.72 µM | 1.27 | 5.51 µM | 0.729 | 2.33 µM
13 | CCOC(=O)c1cnc2c(C)cccc2c1Nc1ccc(C(C)=O)cc1 | 13.5 | > 100 µM | 63.8 | > 100 | 30.9 | > 100 | 75.8 | > 100 | 28 | > 100 µM | 79.9 | > 100 µM | 33.8 | > 100 µM | 19.2 | > 100 µM | 24.9 | > 100 µM | 26.1 | > 100 µM
